# Columns and labels:
# Conditions in all cases: incubation time: 72 h
# [1] = system: CAL-148; test: normalised response (% of control), CellTiter-Glo; higher = more viable cells (100 = DMSO, 0 = benzethonium chloride kill control)
# Protocol: (§1)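 DSRT, 72 h incubation, CellTox Green / CellTiter-Glo readout. Signal is normalised to DMSO and benzethonium chloride controls. Value is the normalised response at the highest dose.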
# [2] = system: Hs578T; test: as above
# Protocol: as §1
# [3] = system: MDA-MB-453; test: as above
# Protocol: as §1
# [4] = system: BT-474; test: as above
# Protocol: as §1
# [5] = system: HCC1143; test: as above
# Protocol: as §1
# [6] = system: CAL-120; test: as above
# Protocol: as §1
# [7] = system: HCC1599; test: as above
# Protocol: as §1
# [8] = system: CAL-85-1; test: as above
# Protocol: as §1
# [9] = system: HDQ-P1; test: as above
# Protocol: as §1
# [10] = system: MFM-223; test: as above
# Protocol: as §1
# [11] = system: BT-549; test: as above
# Protocol: as §1
# [12] = system: CAL-51; test: as above
# Protocol: as §1
# [13] = system: MDA-MB-468; test: as above
# Protocol: as §1
# [14] = system: MDA-MB-231; test: as above
# Protocol: as §1
# [15] = system: HCC1937; test: as above
# Protocol: as §1
# [16] = system: DU-4475; test: as above
# Protocol: as §1
# [17] = system: MDA-MB-436; test: as above
# Protocol: as §1
# [18] = system: MCF-10A; test: as above
# Protocol: as §1
# [19] = system: SK-BR-3; test: as above
# Protocol: as §1
# [20] = system: CAL-148; test: normalised response (% of control), CellTox Green; higher = less cell death (100 = DMSO, 0 = benzethonium chloride kill control)
# Summary of the method: (§2)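 CellTox Green fluorescence (485/520 nm) and, after 10 min at room temperature, CellTiter-Glo luminescence were read from breast cancer cell lines incubated 72 h in 384-well plates. Cells were seeded as 20 µl suspension onto compound at 5 concentrations in 10-fold steps over a 10,000-fold range chosen per compound. Each plate was normalised to 0.1 % DMSO (100) and a positive kill control (0). Values are normalised signals, one per concentration.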
# [21] = system: Hs578T; test: as above
# Summary of the method: as §2
# [22] = system: MDA-MB-453; test: as above
# Summary of the method: as §2
# [23] = system: BT-474; test: as above
# Summary of the method: as §2
# [24] = system: HCC1143; test: as above
# Summary of the method: as §2
# [25] = system: CAL-120; test: as above
# Summary of the method: as §2
# [26] = system: HCC1599; test: as above
# Summary of the method: as §2
# [27] = system: CAL-85-1; test: as above
# Summary of the method: as §2
# [28] = system: MFM-223; test: as above
# Summary of the method: as §2
# [29] = system: BT-549; test: as above
# Summary of the method: as §2
# [30] = system: CAL-51; test: as above
# Summary of the method: as §2
# [31] = system: MDA-MB-468; test: as above
# Summary of the method: as §2
# [32] = system: MDA-MB-231; test: as above
# Summary of the method: as §2
# [33] = system: HCC1937; test: as above
# Summary of the method: as §2
# [34] = system: DU-4475; test: as above
# Summary of the method: as §2
# [35] = system: MDA-MB-436; test: as above
# Summary of the method: as §2
# [36] = system: HDQ-P1; test: as above
# Summary of the method: as §2
# [37] = system: MCF-10A; test: as above
# Summary of the method: as §2
# [38] = system: CAL-148; test: normalised response (% of control), CellTiter-Glo; higher = more viable cells (100 = DMSO, 0 = benzethonium chloride kill control); remark: listed apart in the source
# Summary of the method: as §2
# [39] = system: Hs578T; test: as above; remark: listed apart in the source
# Summary of the method: as §2
# [40] = system: MDA-MB-453; test: as above; remark: listed apart in the source
# Summary of the method: as §2
# [41] = system: BT-474; test: as above; remark: listed apart in the source
# Summary of the method: as §2
# [42] = system: HCC1143; test: as above; remark: listed apart in the source
# Summary of the method: as §2
# [43] = system: CAL-120; test: as above; remark: listed apart in the source
# Summary of the method: as §2
# [44] = system: HCC1599; test: as above; remark: listed apart in the source
# Summary of the method: as §2
# [45] = system: CAL-85-1; test: as above; remark: listed apart in the source
# Summary of the method: as §2
# [46] = system: HDQ-P1; test: as above; remark: listed apart in the source
# Summary of the method: as §2
# [47] = system: MFM-223; test: as above; remark: listed apart in the source
# Summary of the method: as §2
# [48] = system: BT-549; test: as above; remark: listed apart in the source
# Summary of the method: as §2
# [49] = system: CAL-51; test: as above; remark: listed apart in the source
# Summary of the method: as §2
# [50] = system: MDA-MB-468; test: as above; remark: listed apart in the source
# Summary of the method: as §2
# [51] = system: MDA-MB-231; test: as above; remark: listed apart in the source
# Summary of the method: as §2
# [52] = system: HCC1937; test: as above; remark: listed apart in the source
# Summary of the method: as §2
# [53] = system: DU-4475; test: as above; remark: listed apart in the source
# Summary of the method: as §2
# [54] = system: MDA-MB-436; test: as above; remark: listed apart in the source
# Summary of the method: as §2
# [55] = system: MCF-10A; test: as above; remark: listed apart in the source
# Summary of the method: as §2
# [56] = system: SK-BR-3; test: as above; remark: listed apart in the source
# Summary of the method: as §2
smiles,measurement,setting,value
Cc1cc(C(C)Nc2ccccc2)c2nc(N3CCOCC3)cc(=O)n2c1 (stereo unspecified) [TGX-221] (10000 nM),normalised response,[1],105%
same,normalised response,[2],79%
same,normalised response,[3],76.1%
same,normalised response,[4],70.9%
same,normalised response,[5],86.8%
same,normalised response,[6],88.5%
same,normalised response,[7],99.2%
same,normalised response,[8],98.2%
same,normalised response,[9],88.6%
same,normalised response,[10],88.7%
same,normalised response,[11],78.7%
same,normalised response,[12],67.6%
same,normalised response,[13],58.1%
same,normalised response,[14],72.5%
same,normalised response,[15],78.6%
same,normalised response,[16],95.6%
same,normalised response,[17],70.9%
same,normalised response,[18],82.5%
same,normalised response,[19],78%
same,normalised response,[20],97.4%
same,normalised response,[21],-33.5%
same,normalised response,[22],90.7%
same,normalised response,[23],92.8%
same,normalised response,[24],76.9%
same,normalised response,[25],96.3%
same,normalised response,[26],91%
same,normalised response,[27],106%
same,normalised response,[28],94.5%
same,normalised response,[29],84.2%
same,normalised response,[30],93.5%
same,normalised response,[31],152%
same,normalised response,[32],69%
same,normalised response,[33],79.8%
same,normalised response,[34],94.7%
same,normalised response,[35],78.3%
CN(c1ccccc1CNc1nc(Nc2ccc3c(c2)CC(=O)N3)ncc1C(F)(F)F)S(C)(=O)=O (10000 nM),normalised response,[1],73%
same,normalised response,[2],23.9%
same,normalised response,[3],56.4%
same,normalised response,[4],18.1%
same,normalised response,[5],17.8%
same,normalised response,[6],45.7%
same,normalised response,[7],8.88%
same,normalised response,[8],4.6%
same,normalised response,[9],16.5%
same,normalised response,[10],48.2%
same,normalised response,[11],6.21%
same,normalised response,[12],5.46%
same,normalised response,[13],7.14%
same,normalised response,[14],4.8%
same,normalised response,[15],34.6%
same,normalised response,[16],2.4%
same,normalised response,[17],18.9%
same,normalised response,[18],9.01%
same,normalised response,[19],21.6%
same,normalised response,[20],58.1%
same,normalised response,[21],-25.4%
same,normalised response,[22],105%
same,normalised response,[23],84.8%
same,normalised response,[24],70.8%
same,normalised response,[25],89.1%
same,normalised response,[26],60.9%
same,normalised response,[27],11.5%
same,normalised response,[36],68.7%
same,normalised response,[28],92.2%
same,normalised response,[29],52.9%
same,normalised response,[30],16.1%
same,normalised response,[31],110%
same,normalised response,[32],-15.1%
same,normalised response,[33],51.5%
same,normalised response,[34],64.2%
same,normalised response,[35],92.8%
same,normalised response,[37],7.39%
COC(=O)C[C@](O)(CCCC(C)(C)O)C(=O)O[C@@H]1C(OC)=C[C@]23CCCN2CCc2cc4c(cc2[C@H]13)OCO4 [Omacetaxine] (10000 nM),normalised response,[1],26.6%
same,normalised response,[2],1.02%
same,normalised response,[3],24.6%
same,normalised response,[4],5.49%
same,normalised response,[5],10.8%
same,normalised response,[6],21.7%
same,normalised response,[7],6.51%
same,normalised response,[8],1.11%
same,normalised response,[9],21.1%
same,normalised response,[10],3.94%
same,normalised response,[11],2.75%
same,normalised response,[12],6.4%
same,normalised response,[13],4.57%
same,normalised response,[14],2.58%
same,normalised response,[15],17.7%
same,normalised response,[16],10.2%
same,normalised response,[17],17.4%
same,normalised response,[18],1.54%
same,normalised response,[19],1.19%
same,normalised response,[20],1.18%
same,normalised response,[21],33.9%
same,normalised response,[22],98.8%
same,normalised response,[23],75.2%
same,normalised response,[24],74.8%
same,normalised response,[25],80.1%
same,normalised response,[26],88.5%
same,normalised response,[27],-46.3%
same,normalised response,[36],64.9%
same,normalised response,[28],30.1%
same,normalised response,[29],77%
same,normalised response,[30],94.3%
same,normalised response,[31],84.9%
same,normalised response,[32],48.4%
same,normalised response,[33],107%
same,normalised response,[34],98.5%
same,normalised response,[35],32.1%
same,normalised response,[37],-13.6%
CC(=O)O[C@H]1C(=O)[C@@]2(C)[C@H]([C@H](OC(=O)c3ccccc3)[C@]3(O)C[C@H](OC(=O)[C@H](O)[C@@H](NC(=O)c4ccccc4)c4ccccc4)C(C)=C1C3(C)C)[C@]1(OC(C)=O)CO[C@@H]1C[C@@H]2O [Paclitaxel] (10 nM),normalised response,[38],42.7%
same,normalised response,[39],43.3%
same,normalised response,[40],80.2%
same,normalised response,[41],60.3%
same,normalised response,[42],42.3%
same,normalised response,[43],70.1%
same,normalised response,[44],80.5%
same,normalised response,[45],31%
same,normalised response,[46],69.1%
same,normalised response,[47],61.6%
same,normalised response,[48],34%
same,normalised response,[49],52.7%
same,normalised response,[50],28.7%
same,normalised response,[51],62.9%
same,normalised response,[52],68.2%
same,normalised response,[53],89%
same,normalised response,[54],43%
same,normalised response,[55],52.6%
same,normalised response,[56],16.9%
same,normalised response,[20],39.4%
same,normalised response,[21],34.1%
same,normalised response,[22],92.9%
same,normalised response,[23],74.6%
same,normalised response,[24],88.4%
same,normalised response,[25],89.9%
same,normalised response,[26],91.5%
same,normalised response,[27],20.9%
same,normalised response,[36],87.9%
same,normalised response,[28],59.4%
same,normalised response,[29],72.5%
same,normalised response,[30],19.9%
same,normalised response,[31],41.3%
same,normalised response,[32],41%
same,normalised response,[33],86.7%
same,normalised response,[34],97.6%
same,normalised response,[35],-40.2%
same,normalised response,[37],78.9%

# — the supplement of paper PMC4862054
